Measurements reported in patent US20100210602A1, “PhoU (PerF), A P[…] INVOLVED IN [sequence] FORMATION AND TOLERANCE TO MULTIPLE ANTIBIOTICS AND [sequence] AS A DRUG TARGET FOR [sequence] BACTERIA” (priority 2006, published 2010).
In brackets after ≈: the same amount, converted by molar mass. Like-named read-outs stand apart in the source and are kept apart here.

How the values were obtained:
JHU-313 = assay: Kirby-Bauer paper disc assay, zone inhibition
Protocol: (§1) The sensitivity of the bacterial strains to antibiotics or peroxide was determined by Kirby-Bauer's paper disc assay as measured by zone inhibition in millimeters.
(§2) The sensitivity of bacterial strains to antibiotics or stresses was also assessed by the Kirby-Bauer method (2) using paper discs. E. coli bacteria were grown to log phase (10^8 bacteria) in LB broth. An inoculum from this culture was spread across the surfaces of LB plates to provide confluent growth. Nitrocellulose discs (7 mm in diameter) soaked with appropriate antibiotics or stress agents (100 mM H2O2, were placed on the agar surface). After incubation at 37° C. for 48 h, the diameter of the zone of growth inhibition was measured and scored according to the size of the zone of inhibition, which is directly proportional to the sensitivity of the organism to the antibiotic.

[1] = system: JHU-313 containing pVector; assay: Kirby-Bauer paper disc assay, zone inhibition
Protocol: as §1, §2

JHU-313 containing pPhoU [2] = assay: Kirby-Bauer paper disc assay, zone inhibition
Protocol: as §1, §2

H37Rv [3] = assay: microbe, parasite or virus in culture; assay type: cell-based, M. tuberculosis; settings: Mycobacterium tuberculosis, 240 h
parent strain H37Rv = assay type: cell-based, M. tuberculosis
H37Rv [4] = assay: microbe, parasite or virus in culture; assay type: cell-based, M. tuberculosis; settings: Mycobacterium tuberculosis
wild type strain W3110 [5] = assay: microbe, parasite or virus in culture; assay type: cell-based, E. coli; settings: for CFU remaining: stationary phase
PhoU mutant JHU-313 = assay type: cell-based, E. coli
PhoY2 = PhoY2 (Mycobacterium tuberculosis, UniProt P9WI95); assay: EnzChek phosphatase assay, FDA approved compound library screen; assay type: biochemical, M. tuberculosis; settings: for inhibition of PhoY2 enzyme activity in library screen: 50 μM final concentration, 30 min, 60 min and overnight
Protocol: The FDA approved compound library consisting of about 3000 clinical compounds (50 μM final concentration) was screened for inhibitory activity for M. tuberculosis PhoU homolog PhoY2 for phosphatase activity using the EnzChek phosphatase assay kit in a 96 well plate format. The assay was run for 30 min, 60 min and overnight when the plates were read in a fluorescence plate reader (Perkin Elmer). Aurintricarboxylic acid, a known phosphatase inhibitor, was included as a positive control.

wild type strain W3110 [6] = assay: Weak acid susceptibility on LB agar pH 5.0; assay type: cell-based, E. coli; settings: salicylic acid 80 μg/ml, pyrazinoic acid 230 μg/ml, overnight 37° C.
PhoU mutant = assay: Weak acid susceptibility on LB agar pH 5.0; assay type: cell-based, E. coli; settings: salicylic acid 80 μg/ml, pyrazinoic acid 230 μg/ml, overnight 37° C.
M. tuberculosis H37Rv = assay: Killing of old stationary phase cells by PhoY2 inhibitors with TB drugs (CFU); assay type: cell-based; settings: one and two week exposure, 37° C.
Protocol: PhoY2 phosphatase activity inhibitors identified in the screen were tested for their ability to decrease persister formation in M. tuberculosis. […] After one and two week exposure, CFU (colony forming unit) was measured.

[7] = system: JHU-313 containing pVector; assay: MIC/MBC by serial two-fold dilutions in LB broth; assay type: cell-based, E. coli; settings: 16 h at 37° C.
wild type strain W3110 [8] = assay: microbe, parasite or virus in culture; assay type: cell-based, E. coli; settings: LB broth, 16 h at 37° C.
PhoU mutant (JHU-313) [9] = assay: MIC/MBC by serial two-fold dilutions in LB broth; assay type: cell-based, E. coli; settings: 16 h at 37° C.
JHU-313 containing pPhoU [10] = assay: MIC/MBC by serial two-fold dilutions in LB broth; assay type: cell-based, E. coli; settings: 16 h at 37° C.
wild type strain W3110 [11] = assay type: cell-based, E. coli; settings: 20 h after 1.5 h ampicillin pre-exposure; ampicillin 100, gentamicin 20, trimethoprim 16, norfloxacin 5 μg/ml
PhoU mutant (JHU-313) [12] = assay: Sequential antibiotic exposure of ampicillin persisters (CFU); assay type: cell-based, E. coli; settings: 20 h after 1.5 h ampicillin pre-exposure; ampicillin 100, gentamicin 20, trimethoprim 16, norfloxacin 5 μg/ml
E. coli PhoU = biological target: T1, E. coli PhoU (Escherichia coli, UniProt P0A9K7); assay: EnzChek phosphatase assay, DiFMUP substrate, pH 5.5; assay type: biochemical; settings: pH 5.5, DiFMUP
T1 construct: His; made in house
Protocol: In order to test PhoU for phosphatase activity, purified PhoU protein was analyzed using the EnzChek phosphatase assay kit (Invitrogen, Molecular Probes). Phosphatase activity was continuously monitored at acidic pH 5.5 and 6,8-difluoro-4-methylumbelliferyl phosphate (DiFMUP) was used as the substrate according to manufacturer's instruction.
Since most phosphatases have a metal requirement for activity, using either Mg^2+ or Zn^2+, the effects of various metal ions on the PhoU phosphatase enzyme activity were examined at acidic pH 5.5 and using DiFMUP as a substrate.
Phosphatase assays were performed using purified recombinant wild type and mutant PhoU proteins.

PhoY1 = biological target: T2, PhoY1 (Mycobacterium tuberculosis, UniProt P9WI97); assay: EnzChek phosphatase assay; assay type: biochemical, M. tuberculosis; settings: pH 5.5
T2 sequence (P9WI97 1-221): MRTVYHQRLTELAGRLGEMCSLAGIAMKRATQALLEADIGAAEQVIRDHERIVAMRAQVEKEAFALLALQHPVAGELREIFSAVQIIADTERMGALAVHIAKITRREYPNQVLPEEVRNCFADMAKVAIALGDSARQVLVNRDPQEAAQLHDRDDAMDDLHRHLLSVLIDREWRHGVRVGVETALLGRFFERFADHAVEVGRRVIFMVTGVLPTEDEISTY

Sequence of PhoY2 (P9WI95 whole entry): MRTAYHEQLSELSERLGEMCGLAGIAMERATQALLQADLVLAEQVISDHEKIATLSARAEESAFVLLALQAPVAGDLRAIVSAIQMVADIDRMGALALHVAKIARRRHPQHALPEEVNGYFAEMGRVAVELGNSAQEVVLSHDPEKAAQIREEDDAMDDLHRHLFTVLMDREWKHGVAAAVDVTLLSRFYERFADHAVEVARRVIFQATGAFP
T1 sequence (P0A9K7 whole entry): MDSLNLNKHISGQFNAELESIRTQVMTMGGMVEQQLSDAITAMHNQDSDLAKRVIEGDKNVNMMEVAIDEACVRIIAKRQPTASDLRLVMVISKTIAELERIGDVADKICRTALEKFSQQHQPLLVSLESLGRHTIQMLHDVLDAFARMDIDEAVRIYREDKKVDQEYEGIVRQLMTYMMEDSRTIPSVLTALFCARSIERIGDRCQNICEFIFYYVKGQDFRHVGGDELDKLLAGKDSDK

OO [Hydrogen peroxide, hydrogen peroxide]
zone inhibition (JHU-313; peroxide (30%)): 37 mm
zone inhibition ([1]; peroxide (30%)): 46 mm
zone inhibition (W3110): 30 mm
zone inhibition (JHU-313 containing pPhoU [2]; peroxide (30%)): 39 mm

NNC(=O)c1ccncc1 [INH, isoniazid]
MIC (H37Rv [3]; 10 days at 37° C.): 0.2 µg/mL (≈ 1.46 µM)

NC(=O)c1cnccn1 [PZA, pyrazinamide]
CFU/ml 3 day (parent strain H37Rv; 200 μg/ml): 3.1 × 10^5 CFU/ml
CFU/ml 9 day (parent strain H37Rv; 200 μg/ml): 5.3 × 10^3 CFU/ml
MBC (H37Rv [4]; pH 5.9, read-out: MBC): 400 µg/mL (≈ 3250 µM)
MIC (H37Rv [4]; pH 5.9, read-out: MIC): 200 µg/mL (≈ 1620 µM)
MIC (wild type strain W3110 [5]; Escherichia coli, W3110, normal growing E. coli, pH 5.0): > 2000 µg/mL
CFU left (wild type strain W3110 [5]; pH 5): about 10^6 CFU/ml
CFU remaining (wild type strain W3110 [5]; 500 μg/ml, pH 5.0, 1 week): 5×10^4 CFU/ml
CFU remaining (wild type strain W3110 [5]; 2 mg/ml, pH 5.0, day 6): 6.7×10^6 CFU/ml
killing of culture (PhoU mutant JHU-313; pH 5): completely killed
viable bacteria left (PhoU mutant JHU-313; stationary phase, 500 μg/ml, pH 5.0, 1 week): no viable bacteria left
sterilization of culture (PhoU mutant JHU-313; stationary phase, 2 mg/ml, pH 5.0, day 6): completely sterilized
MIC (H37Rv [3]; pH 5.6, pH5.6, 10 days at 37° C.): 200 µg/mL (≈ 1620 µM)

CO[C@H]1/C=C/O[C@@]2(C)Oc3c(C)c(O)c4c(O)c(c(/C=N/N5CCN(C)CC5)c(O)c4c3C2=O)NC(=O)/C(C)=C\C=C\[C@H](C)[C@H](O)[C@@H](C)[C@@H](O)[C@@H](C)[C@H](OC(C)=O)[C@@H]1C [RIF, rifampin]
CFU/ml 3 day (parent strain H37Rv; 8 μg/ml): 3.37 × 10^5 CFU/ml
MBC (H37Rv [4]): 0.2 µg/mL (≈ 0.243 µM)
MIC (H37Rv [4]): 0.1 µg/mL (≈ 0.122 µM)
MIC (H37Rv [3]; 10 days at 37° C.): 0.2 µg/mL (≈ 0.243 µM)

C1CNCCN1 [piperazine]
inhibition of PhoY2 enzyme activity in library screen (PhoY2): inhibit PhoY2 enzyme activity

CN1CCCN=C1/C=C/c1cccs1 [pyrantel pamoate]
inhibition of PhoY2 enzyme activity in library screen (PhoY2): inhibit PhoY2 enzyme activity

O=C(O)c1cnccn1 [pyrazinoic acid]
growth on LB agar with weak acid (wild type strain W3110 [6]): resistant
growth on LB agar with weak acid (PhoU mutant): lack of growth at ⅓ MIC

O=C(O)c1ccccc1O [salicylic acid]
growth on LB agar with weak acid (wild type strain W3110 [6]): resistant
growth on LB agar with weak acid (PhoU mutant): lack of growth at ⅓ MIC

Pyrantel tartrate
enhancement of INH, RIF or PZA activity (M. tuberculosis H37Rv): could enhance the activity of INH, RIF or PZA

gentamicin
MBC [7]: 2.5 µg/mL
MIC [7]: 1.25 µg/mL
zone inhibition (JHU-313; 0.1 μg/ml): 20 mm
zone inhibition (JHU-313; 0.5 μg/ml): 22 mm
zone inhibition (JHU-313; 2 μg/ml): 26 mm
zone inhibition (JHU-313; 10 μg/ml): 27 mm
MBC (wild type strain W3110 [8]): 5 µg/mL
MIC (wild type strain W3110 [8]): 2.5 µg/mL
zone inhibition ([1]; 0.1 μg/ml): 22 mm
zone inhibition ([1]; 0.5 μg/ml): 29 mm
zone inhibition ([1]; 2 μg/ml): 30 mm
zone inhibition ([1]; 10 μg/ml): 31 mm
MBC (PhoU mutant (JHU-313) [9]): 2.5 µg/mL
MIC (PhoU mutant (JHU-313) [9]): 1.25 µg/mL
MBC (JHU-313 containing pPhoU [10]): 5 µg/mL
MIC (JHU-313 containing pPhoU [10]): 2.5 µg/mL
zone inhibition (W3110; 0.1 μg/ml): 14 mm
zone inhibition (W3110; 0.5 μg/ml): 20 mm
zone inhibition (W3110; 2 μg/ml): 22 mm
zone inhibition (W3110; 10 μg/ml): 25 mm
CFU after second antibiotic exposure (wild type strain W3110 [11]): 5 × 10^5 CFU/ml
zone inhibition (JHU-313 containing pPhoU [2]; 0.1 μg/ml): 17 mm
zone inhibition (JHU-313 containing pPhoU [2]; 0.5 μg/ml): 22 mm
zone inhibition (JHU-313 containing pPhoU [2]; 2 μg/ml): 24 mm
zone inhibition (JHU-313 containing pPhoU [2]; 10 μg/ml): 28 mm
CFU after second antibiotic exposure (PhoU mutant (JHU-313) [12]): 2 × 10^3 CFU/ml

phosphate
effect on PhoU phosphatase activity (E. coli PhoU): inhibit the phosphatase activity
effect on PhoY1 phosphatase activity (PhoY1): inhibited
effect on PhoY2 phosphatase activity (PhoY2; pH 5.5): inhibited
